{
  "source": "paper PMC9689838",
  "about": "“Screening and Identification of Novel Soluble Epoxide Hydrolase Inhibitors from Corn Gluten Peptides” (Foods, 2022)",
  "key": {"[1]": {"tested_on": "sEH", "details": "read-out: IC50, sEH inhibitory activity, cited from earlier work"}, "[2]": {"target": "T1, Human soluble epoxide hydrolase (sEH) (Homo sapiens, UniProt P34913)", "T1 construct": "purchased Cayman Chemical (Ann Arbor, MI, USA)", "T1 sequence (P34913 1-555)": "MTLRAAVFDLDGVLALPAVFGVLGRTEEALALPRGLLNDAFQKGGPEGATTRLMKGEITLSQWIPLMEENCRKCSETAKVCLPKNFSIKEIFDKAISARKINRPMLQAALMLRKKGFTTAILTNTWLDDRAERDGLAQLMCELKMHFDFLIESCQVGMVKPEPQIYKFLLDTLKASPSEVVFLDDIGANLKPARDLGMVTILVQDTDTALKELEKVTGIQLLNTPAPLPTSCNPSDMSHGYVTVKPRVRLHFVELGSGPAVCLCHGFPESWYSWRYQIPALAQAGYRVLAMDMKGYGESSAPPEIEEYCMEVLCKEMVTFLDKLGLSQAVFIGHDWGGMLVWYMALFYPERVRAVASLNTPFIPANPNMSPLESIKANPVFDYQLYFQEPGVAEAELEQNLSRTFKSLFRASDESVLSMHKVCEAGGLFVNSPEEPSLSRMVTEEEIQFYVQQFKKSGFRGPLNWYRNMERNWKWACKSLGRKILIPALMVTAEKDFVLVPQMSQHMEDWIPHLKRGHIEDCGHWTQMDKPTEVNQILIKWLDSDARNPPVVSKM", "experiment": "sEH inhibitory activity assay with fluorescent substrate PHOME", "assay_type": "biochemical", "details": "10 µM PHOME, 40 min, mean ± SD n = 3; for inhibition at 100 µM: peptide 100 µM final, 62.5 ng/mL sEH, 37 °C; for IC50: synthesized peptides 20-100 µM", "procedure": "The effects of the concentrations of the enzyme, substrate, and the hydrolysis time of sEH on PHOME were determined according to the methods reported previously. […] After incubating at 37 °C for 5 to 50 min, the fluorescence intensity was measured at an emission wavelength of 465 nm and an excitation wavelength of 330 nm. Bis-Tris-HCl instead of PHOME was used as the blank control. The reaction rate of the system was calculated as follows:(1) The reaction rate (RFU/min)=St - Ct/t where St (RFU) and Ct (RFU) represent the fluorescence intensity of the sample and blank group at t min, respectively. The t (min) represents the reaction time.\nThe sEH inhibitory activities of peptides were determined as above described. Briefly, 130 µL of 62.5 ng/mL human sEH solution (final concentrations, dissolved in 25 mM bis-Tris-HCl containing 0.1% BSA, pH 7.0) and 20 µL of peptides (final concentrations: synthesized peptides, 20, 40, 60, 80, and 100 µM; corn gluten peptides, 1, 2, 3, 4, and 5 mg/mL, respectively) were added to 96-well plate followed by adding 50 µL of 10 µM PHOME solution (final concentration, dissolved in 25 mM bis-Tris-HCl containing 0.1% BSA, pH 7.0). After incubating at 37 °C for 5 to 40 min, the fluorescence intensity of the mixture at an emission wavelength of 465 nm and an excitation wavelength of 330 nm was determined. […] The sEH inhibitory activity was calculated as follows:(2) sEH inhibitory activity (%)=C40 - S40/C40 - C0×100% where C40 (RFU) and C0 (RFU) represented the fluorescence intensity of the blank control group at 40 and 0 min, respectively. S40 (RFU) represented the fluorescence intensity of the sample group at 40 min."}, "[3]": {"details": "isolated from Capsicum chinense"}},
  "note": "Read-outs that look alike come from different tables or passages of the source. Where a SMILES comes first, the peptide text is derived from it.",
  "data": [
    {"smiles": "C[C@@H]1CC[C@]2(C(=O)O)CC[C@]3(C)C(=CC[C@@H]4[C@@]5(C)CC(=O)[C@H](O)C(C)(C)[C@@H]5CC[C@]43C)[C@@H]2[C@]1(C)O", "note": "[2-oxopomolic acid]", "values": [
      {"measurement": "IC50", "setting": "[1]", "result": "11.4 ± 2.7", "unit": "µM"}
    ]},
    {"smiles": "N[C@@H](Cc1c[nH]c2ccccc12)C(=O)N[C@@H](CCC(=O)O)C(=O)N[C@@H](Cc1ccc(O)cc1)C(=O)O", "note": "[WEY] (H-Trp-Glu-Tyr-OH)", "values": [
      {"measurement": "inhibition at 100 µM", "setting": "[2]", "result": "70 ± 6.25", "unit": "%"},
      {"measurement": "IC50", "setting": "[2]", "result": "55.4 ± 1.55", "unit": "µM"}
    ]},
    {"smiles": "N[C@@H](Cc1c[nH]c2ccccc12)C(=O)N[C@@H](Cc1c[nH]c2ccccc12)C(=O)N[C@@H](Cc1ccc(O)cc1)C(=O)O", "note": "[WWY] (H-Trp-Trp-Tyr-OH)", "values": [
      {"measurement": "inhibition at 100 µM", "setting": "[2]", "result": "55.1 ± 2.38", "unit": "%"},
      {"measurement": "IC50", "setting": "[2]", "result": "68.8 ± 7.72", "unit": "µM"}
    ]},
    {"smiles": "N[C@@H](Cc1c[nH]c2ccccc12)C(=O)N[C@@H](Cc1ccc(O)cc1)C(=O)N[C@@H](Cc1c[nH]c2ccccc12)C(=O)O", "note": "[WYW] (H-Trp-Tyr-Trp-OH)", "values": [
      {"measurement": "inhibition at 100 µM", "setting": "[2]", "result": "60.3 ± 5.6", "unit": "%"},
      {"measurement": "IC50", "setting": "[2]", "result": "70.7 ± 9.9", "unit": "µM"}
    ]},
    {"smiles": "N[C@@H](Cc1ccc(O)cc1)C(=O)N[C@@H](Cc1ccccc1)C(=O)N[C@@H](Cc1c[nH]c2ccccc12)C(=O)O", "note": "[YFW] (H-Tyr-Phe-Trp-OH)", "values": [
      {"measurement": "inhibition at 100 µM", "setting": "[2]", "result": "57.4 ± 7.62", "unit": "%"},
      {"measurement": "IC50", "setting": "[2]", "result": "96 ± 7.5", "unit": "µM"}
    ]},
    {"smiles": "N[C@@H](Cc1ccc(O)cc1)C(=O)N[C@@H](Cc1ccccc1)C(=O)N[C@@H](Cc1ccc(O)cc1)C(=O)O", "note": "[YFY] (H-Tyr-Phe-Tyr-OH)", "values": [
      {"measurement": "inhibition at 100 µM", "setting": "[2]", "result": "53 ± 3.09", "unit": "%"},
      {"measurement": "IC50", "setting": "[2]", "result": "94.1 ± 12.9", "unit": "µM"}
    ]},
    {"smiles": "COc1cc(CNC(=O)CCCC/C=C/C(C)C)ccc1O", "note": "[capsaicin]", "values": [
      {"measurement": "IC50", "setting": "[1]; [3]", "result": "5.6 ± 1.2", "unit": "µM"}
    ]},
    {"smiles": "C[C@H]1[C@H](C)CC[C@]2(C(=O)O)CC[C@]3(C)C(=CC[C@@H]4[C@@]5(C)C[C@@H](O)[C@H](O)C(C)(C)[C@@H]5CC[C@]43C)[C@H]12", "note": "[corosolic acid]", "values": [
      {"measurement": "IC50", "setting": "[1]", "result": "51.3 ± 4.9", "unit": "µM"}
    ]},
    {"smiles": "COc1cc(CNC(=O)CCCCCCC(C)C)ccc1O", "note": "[dihydrocapsaicin]", "values": [
      {"measurement": "IC50", "setting": "[1]; [3]", "result": "7.3 ± 0.7", "unit": "µM"}
    ]},
    {"smiles": "CC(C)CNC(=O)/C=C/CCc1ccc2c(c1)OCO2", "note": "[dihydropiperlonguminine]", "values": [
      {"measurement": "IC50", "setting": "[1]; from Scutellaria baicalensis", "result": "7.83 ± 0.52", "unit": "µM"}
    ]},
    {"smiles": "CC(C)C(=O)Nc1ccc([N+](=O)[O-])c(C(F)(F)F)c1", "note": "[flutamide]", "values": [
      {"measurement": "IC50", "setting": "[1]; from Scutellaria baicalensis", "result": "6.32 ± 0.31", "unit": "µM"}
    ]},
    {"smiles": "O=c1c(O)c(-c2ccc(O)cc2)oc2cc(O)cc(O)c12", "note": "[kaempferol]", "values": [
      {"measurement": "IC50", "setting": "[1]", "result": "31.3 ± 2.6", "unit": "µM"}
    ]},
    {"smiles": "CCCCC/C=C/C=C/C(=O)NCC(C)C", "note": "[pellitorine]", "values": [
      {"measurement": "IC50", "setting": "[1]; from Scutellaria baicalensis", "result": "93.7 ± 4.52", "unit": "µM"}
    ]},
    {"smiles": "CC(C)CNC(=O)/C=C/C=C/c1ccc2c(c1)OCO2", "note": "[piperlonguminine]", "values": [
      {"measurement": "IC50", "setting": "[1]; from Scutellaria baicalensis", "result": "6.06 ± 0.12", "unit": "µM"}
    ]},
    {"smiles": "O=c1c(O[C@H]2OC[C@@H](O)[C@@H](O)[C@@H]2O)c(-c2ccc(O)c(O)c2)oc2cc(O)cc(O)c12", "note": "[quercetin-3-O-arabinoside]", "values": [
      {"measurement": "IC50", "setting": "[1]", "result": "39.3 ± 3.4", "unit": "µM"}
    ]},
    {"smiles": "O=c1c(O)c(-c2ccc(O)c(O)c2)oc2cc(O)cc(O)c12", "note": "[quercetin]", "values": [
      {"measurement": "IC50", "setting": "[1]", "result": "22.5 ± 0.9", "unit": "µM"}
    ]},
    {"smiles": "C[C@H]1[C@H](C)CC[C@]2(C(=O)O)CC[C@]3(C)C(=CC[C@@H]4[C@@]5(C)CC[C@H](O)C(C)(C)[C@@H]5CC[C@]43C)[C@H]12", "note": "[ursolic acid]", "values": [
      {"measurement": "IC50", "setting": "[1]", "result": "84.5 ± 9.5", "unit": "µM"}
    ]}
  ]
}
